# Assay results taken from ChEMBL document CHEMBL4699662, “Identification and structure-activity relationship studies of small molecule inhibitors of the human cathepsin D” (Bioorg Med Chem, 2021).
# Columns and labels:
# [1] = biological target: Cathepsin D (Homo sapiens) (UniProt P07339); details: dose 182.0 nM, time 130.0 min
# in vitro [2] = details: mouse, liver microsomes
# in vitro [3] = details: human, liver microsomes
# Sequence of Cathepsin D (Homo sapiens) (P07339 65-162 limits assumed): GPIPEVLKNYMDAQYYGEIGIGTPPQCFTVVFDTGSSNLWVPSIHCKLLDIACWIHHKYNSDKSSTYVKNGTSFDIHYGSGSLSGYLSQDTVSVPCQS
# Sequence of Cathepsin D (Homo sapiens) (P07339 169-412 limits assumed): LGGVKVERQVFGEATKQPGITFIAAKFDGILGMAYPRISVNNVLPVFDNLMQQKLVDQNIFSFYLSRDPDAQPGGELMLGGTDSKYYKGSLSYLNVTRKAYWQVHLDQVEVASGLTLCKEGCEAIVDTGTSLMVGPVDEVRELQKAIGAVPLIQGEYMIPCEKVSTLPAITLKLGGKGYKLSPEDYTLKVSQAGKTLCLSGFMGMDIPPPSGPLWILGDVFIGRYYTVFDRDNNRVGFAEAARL
Compound,inhibition [1] [%],"microsomal CLint at 0.5 h, 1 µM (in vitro [2]) [µL/min/mg]","microsomal CLint at 0.5 h, 1 µM (in vitro [3]) [µL/min/mg]"
CC(C)CC(=O)N[C@H](C(=O)N[C@H](C(=O)N[C@@H](CC(C)C)[C@@H](O)CC(=O)N[C@@H](C)C(=O)N[C@@H](CC(C)C)[C@@H](O)CC(=O)O)C(C)C)C(C)C,98.7,,
CC[C@@H](NC(=N)NC(=O)Cc1ccc(OC)c(OC)c1)C(=O)Nc1cc(S(N)(=O)=O)ccc1C,,118,55.1
CNS(=O)(=O)c1ccc(C)c(NC(=O)[C@H](NC(=N)NC(=O)Cc2ccc(OC)c(OC)c2)c2ccccc2)c1,,270,281
NC(=O)N1c2ccccc2C=Cc2ccccc21 [CARBAMAZEPINE],,7,6
CNS(=O)(=O)c1ccc(C)c(NC(=O)[C@@H](CC2CCCCC2)NC(=N)NC(=O)Cc2cc(Cl)cc(C(F)(F)F)c2)c1,,220,239
CNS(=O)(=O)c1ccc(C)c(NC(=O)[C@H](CC2CCCCC2)NC(=N)NC(=O)Cc2ccc(OC)c(OC)c2)c1,,180,176
COc1ccc(CC(=O)NC(=N)N[C@H](Cc2ccccc2F)C(=O)Nc2cc(S(N)(=O)=O)ccc2C)cc1OC,,149,171
Cc1ccc(S(=O)(=O)N(C)C)cc1NC(=O)[C@@H](CC1CCCCC1)NC(=N)NC(=O)Cc1cc(C(F)(F)F)cc(C(F)(F)F)c1,,258,246
COc1ccc(CC(=O)NC(=N)N[C@H](CCSC)C(=O)Nc2cc(S(N)(=O)=O)ccc2C)cc1OC,,297,262
Cc1ccc(S(=O)(=O)N(C)C)cc1NC(=O)[C@@H](CC1CCCCC1)NC(=N)NC(=O)Cc1ccc(F)c(F)c1,,264,163
COCC[C@@H](NC(=N)NC(=O)Cc1ccc(OC)c(OC)c1)C(=O)Nc1cc(S(N)(=O)=O)ccc1C,,57.3,43.1
CNS(=O)(=O)c1ccc(C)c(NC(=O)[C@@H](Cc2ccccc2)NC(=N)NC(=O)Cc2ccc(OC)c(OC)c2)c1,,149,131
COc1ccc(CC(=O)NC(=N)N[C@H](CO)C(=O)Nc2cc(S(N)(=O)=O)ccc2C)cc1OC,,15.5,22.5
Cc1ccc(S(=O)(=O)N(C)C)cc1NC(=O)[C@@H](CC1CCCCC1)NC(=N)NC(=O)Cc1cccc(C(F)(F)F)c1,,270,238
COc1ccc(CC(=O)NC(=N)N[C@H](C)C(=O)Nc2cc(S(N)(=O)=O)ccc2C)cc1OC,,50.6,27.8
COc1ccc(CC(=O)NC(=N)N[C@H](CSC)C(=O)Nc2cc(S(N)(=O)=O)ccc2C)cc1OC,,197,187
Cc1ccc(S(=O)(=O)N(C)C)cc1NC(=O)[C@@H](CC1CCCCC1)NC(=N)NC(=O)Cc1ccccc1C(F)(F)F,,244,208
COc1ccc(CC(=O)NC(=N)N[C@H](CC2CCCCC2)C(=O)Nc2cc(S(N)(=O)=O)ccc2C)cc1OC,,161,171
CNS(=O)(=O)c1ccc(C)c(NC(=O)[C@@H](CC2CCCCC2)NC(=N)NC(=O)Cc2ccc(F)c(OC)c2)c1,,326,287
Cc1ccc(S(=O)(=O)N(C)C)cc1NC(=O)[C@@H](CC1CCCCC1)NC(=N)NC(=O)c1ccc2c(c1)OCCO2,,272,253
COC[C@@H](NC(=N)NC(=O)Cc1ccc(OC)c(OC)c1)C(=O)Nc1cc(S(N)(=O)=O)ccc1C,,47.2,26.9
CNS(=O)(=O)c1ccc(C)c(NC(=O)[C@H](NC(=N)NC(=O)Cc2ccc(OC)c(OC)c2)C2CCCCC2)c1,,173,211
COc1ccc(CC(=O)NC(=N)N[C@H](C(=O)Nc2cc(S(N)(=O)=O)ccc2C)C2CCCC2)cc1OC,,179,174
COc1ccc(CC(=O)NC(=N)NCC(=O)Nc2cc(S(N)(=O)=O)ccc2C)cc1OC,,20,18
COc1ccc(CC(=O)NC(=N)N[C@@H](C(=O)Nc2cc(S(N)(=O)=O)ccc2C)C(C)C)cc1OC,,174,64.3
